From publication PMC4710522, “A Novel Triazolopyridine-Based Spleen Tyrosine Kinase Inhibitor That Arrests Joint Inflammation” (PLoS ONE, 2016)

Key:
[1] = system: Tel-Syk expressing BaF3 cells; assay: Tel-Syk BaF3 viability assay (growth factor-independent growth); type: cell-based, murine; settings: Tel-Syk BaF3, absence of IL-3
Experimental: HEK293 T-REx™ (Life Technologies, Grand Island, NY) stably transfected with human TEL-Syk (cloned as described prior section DNA constructs) were plated on black poly-D-lysine coated 96-well plates (BD Biosciences, San Diego, CA) in culture media containing tetracycline-free fetal bovine serum (Clontech, MountainView, CA) for 16 hours in a tissue culture incubator. Tel-Syk expression was induced for 6 hours in fresh growth media containing 1 μg/ml tetracycline (Sigma Chemicals, St. Louis, MO). Plates were preincubated with CC-509 for 90 minutes, fixed immediately with 4% formaldehyde in 1X PBS for 20 min at room temperature, and washed/permeabilized 5-times with PBS containing 0.1% Triton X-100. Plates were blocked with Odyssey Blocking Buffer for 90 minutes at room temperature and incubated overnight at 4°C on a rotating platform with rabbit phospho-Syk (1:1000) and mouse V5 (1:2500) primary antibodies diluted in Odyssey Blocking Buffer. […] Viability of BaF/3 cells expressing Tel-Syk grown in the absence of murine IL-3 was measured using Cell-Titer Glo reagent (Promega, Madison, WI), as described by supplier.

[2] = system: rat passive cutaneous anaphylaxis model; assay: rat passive cutaneous anaphylaxis (PCA) model; type: in vivo; settings: positive control cromolyn 100 mg/kg IV, p<0.001
Experimental: On day 0, male CD-IGS rats (170 – 190g; Charles River Laboratories) were anesthetized with isofluorane, their dorsal region shaved and 50 μl Anti-DNP-IgE (Clone SPE-7, Sigma, St. Louis, MO) that had been diluted 1:1000 in saline was injected via the intradermal route at 3 individual spots along the right side of the back. Saline was injected via the intradermal route at 3 individual spots along the left side of the back as a sham control. Twenty-four hours later, 200 μl of BSA-DNP (Calbiochem, San Diego, CA), prepared (1 mg prepared in a 2% solution of Evans blue dye: Sigma Chemicals, St. Louis, MO) was injected via the IV route via the tail vein. Thirty minutes after the BSA-DNP challenge the experiment was terminated and skin samples from the middle of each injection site taken for Evans blue dye measurement at an OD measurement at 620nm on a plate reader following incubation (2h at 90°C) and homogenization in formamide (Sigma Chemicals, St. Louis, MO). Vehicle (20% Captisol® (Captisol), PO), the positive control (Cromolyn: Sigma Chemicals, St. Louis, MO 100mg/kg, 2mL/kg, IV) or CC0484509 (3 and 10mg/kg, PO) were dosed 1h prior to the IV challenge with BSA-DNP.
For the TEL-Syk assay, the intensity values for the 700 and 800 channel were exported as text files in ActivityBase (IDBS, Guildford, UK) to derive the ratios that reflect kinase activity. For LAD2 experiments, enzyme activity values were exported as text files into ActivityBase to calculate “percent release” according to the formula: 100* supernatant OD405/ (supernatant OD405 + (pellet OD405*pellet dilution factor)). For the basophil and B-cells assays, flow cytometry data was exported from the FACS Array and processed using FloJo software package (TreeStar, Inc., Ashland, Oregon). For the JAK2 HEL and Ramos NFAT β-lactamase assays, the fluorescence values obtained at 460 nm and 530 nm were exported into ActivityBase to calculate response ratios. For the neutrophil, macrophage, KDR, and JAK1/3 assays, raw values were exported into ActivityBase to calculate percent inhibition. All IC50 calculations were generated using XLfit (IDBS, Guildford, UK) algorithm 205 within Excel. For PCA, the OD from the saline injected site was subtracted from the OD from the anti-DNP IgE injected site. Evans blue dye extravasation was expressed as mean ± SEM and % inhibition for the test article groups was normalized to the cromolyn positive control. For the CIA model paw measurements (left and right ankle diameter) were taken for each individual animal and averaged. The mean data from each group was plotted and either the AUC(day 11–18) or % inhibition on day 18 was calculated. Data is expressed as mean ± SEM of each group with n = 6–12. […]

[3] = design: method as in PMID 19096013; settings: chronic and refractory ITP; cited from earlier work
[4] = system: proinflammatory analytes in paw tissue; assay: inflammatory cytokines measured in the paw, rat CIA; type: in vivo; settings: day 18; CC-509 all dose levels p<0.01; indomethacin p<0.05
Experimental: Following the last administration of CC-509, paw samples were collected and processed for cytokine and chemokine analysis (Aushon Biosciences, Billerica, MA). Briefly paws were snap-frozen and pulverized in liquid nitrogen followed by addition of cell signal lysis buffer in the presence of protease and phosphatase inhibitors (Sigma Chemicals, St. Louis, MO). Samples were homogenized on high speed for 30 seconds, incubated on ice for 20 minutes then sonicated at high intensity for 1 minute. Samples were spun at high speed and supernatants were collected for cytokine analysis.

[5] = system: rat collagen-induced arthritis model; assay: rat collagen-induced arthritis (CIA) model, paw swelling; type: in vivo; settings: Indomethacin 2 mg/kg oral, p<0.01
Experimental: Female Lewis rats (150 – 170g; Charles River Laboratories) were house standard shoebox cages, fed Harlan-Tekald diet and water ad libitum and maintained on a 12h light/dark cycle. For induction of arthritis rats were anesthetized with isofluorane and their entire dorsal area shaved. Rats were injected (intradermal) with 100 μl of equal volumes of collagen (Chrondrex, Redmond, WA) and IFA (Sigma Chemicals, St. Louis, MO) emulsion in 10 sites across the dorsal region. At disease onset 11 days following immunization animals were randomized into groups based on their ankle measurements and test article administration was initiated. Rats were dosed orally with vehicle (20% Captisol®), Indomethacin (Sigma Chemicals, St. Louis, MO, 2mg/kg) or CC-509 (15, 25mg/kg QD or 15mg/kg BID) in a dose volume of 5ml/kg. […] On the last day of the study animals were split into 2 cohorts and bleed twice via tail bleed under isofluorane anesthesia and a third terminal bleed following CO2 asphyxiation to obtain a time course of plasma compound exposure at 30minutes, 1, 2, 4, 8 and 24h after the last dose of CC-509.
For the TEL-Syk assay, the intensity values for the 700 and 800 channel were exported as text files in ActivityBase (IDBS, Guildford, UK) to derive the ratios that reflect kinase activity. For LAD2 experiments, enzyme activity values were exported as text files into ActivityBase to calculate “percent release” according to the formula: 100* supernatant OD405/ (supernatant OD405 + (pellet OD405*pellet dilution factor)). For the basophil and B-cells assays, flow cytometry data was exported from the FACS Array and processed using FloJo software package (TreeStar, Inc., Ashland, Oregon). For the JAK2 HEL and Ramos NFAT β-lactamase assays, the fluorescence values obtained at 460 nm and 530 nm were exported into ActivityBase to calculate response ratios. For the neutrophil, macrophage, KDR, and JAK1/3 assays, raw values were exported into ActivityBase to calculate percent inhibition. All IC50 calculations were generated using XLfit (IDBS, Guildford, UK) algorithm 205 within Excel. For PCA, the OD from the saline injected site was subtracted from the OD from the anti-DNP IgE injected site. Evans blue dye extravasation was expressed as mean ± SEM and % inhibition for the test article groups was normalized to the cromolyn positive control. For the CIA model paw measurements (left and right ankle diameter) were taken for each individual animal and averaged. The mean data from each group was plotted and either the AUC(day 11–18) or % inhibition on day 18 was calculated. Data is expressed as mean ± SEM of each group with n = 6–12. Statistical analysis was performed with Prism Graphpad using one-way ANOVA followed by Dunnett’s comparison using the vehicle group as the control or for measurements over time a 2 way ANOVA followed by a Dunnett’s multiple comparison test. Statistical significance was deemed as * = p<0.05, **p<0.01, ***p<0.001 and p<0.0001.

## NCCNc1ncc(C(N)=O)c(Nc2cccc(C(F)(F)F)c2)n1 [Syk II inhibitor, reference compound]
[1]
  IC50: 2240 ± 290 nM

## O=C(O)c1cc(=O)c2c(OCC(O)COc3cccc4oc(C(=O)O)cc(=O)c34)cccc2o1 [cromolyn, reference compound]
[2]
  inhibition of skin edema compared to vehicle control group: 79%

## COc1cc(Nc2ncc(F)c(Nc3ccc4c(n3)N(COP(=O)(O)O)C(=O)C(C)(C)O4)n2)cc(OC)c1OC [fostamatinib]
[3]
  patients with durable platelet responses: 8/16

## COc1ccc2c(c1)c(CC(=O)O)c(C)n2C(=O)c1ccc(Cl)cc1 [indomethacin, reference compound]
[4]
  MIP-1α in the paw: significantly inhibited
[5]
  inhibition of paw swelling: 82%
